Laboratory results published in patent US12679878B2, “CRF2 receptor agonists and their use in therapy” (SANOFI, priority 2020, dated 2026).
Starred links: 1 amine or outer side, 2 acyl side, 3 side chain; linkers in the order of their positions; H or OH if unused. Non-standard residues stand in square brackets, D forms with d. Residues, ends and D or L forms follow the SMILES beside them. Groups on a side chain read outwards from the residue. *: point of attachment. C18 diacid = O=C(O)CCCCCCCCCCCCCCCCC(=O)*; γGlu = O=C(O)[C@H](CCC(=O)[*:2])N[*:1]; AEEA = NCCOCCOCC(=O)O; Aib = CC(C)(N)C(=O)O

target: T1, human CRF2α receptor (Homo sapiens, UniProt Q13324); assay: cAMP agonism at human CRF2 α receptor in TeloHEAC cells (Example 7); type: cell-based; conditions: cAMP HTRF, TeloHEAC cells stably expressing human CRF2 α, 0% HSA; read-out: EC50 [nM], 0% HSA
T1 construct: expressed in transfected cells; host or cells: TeloHEAC
T1 sequence (Q13324 1-411): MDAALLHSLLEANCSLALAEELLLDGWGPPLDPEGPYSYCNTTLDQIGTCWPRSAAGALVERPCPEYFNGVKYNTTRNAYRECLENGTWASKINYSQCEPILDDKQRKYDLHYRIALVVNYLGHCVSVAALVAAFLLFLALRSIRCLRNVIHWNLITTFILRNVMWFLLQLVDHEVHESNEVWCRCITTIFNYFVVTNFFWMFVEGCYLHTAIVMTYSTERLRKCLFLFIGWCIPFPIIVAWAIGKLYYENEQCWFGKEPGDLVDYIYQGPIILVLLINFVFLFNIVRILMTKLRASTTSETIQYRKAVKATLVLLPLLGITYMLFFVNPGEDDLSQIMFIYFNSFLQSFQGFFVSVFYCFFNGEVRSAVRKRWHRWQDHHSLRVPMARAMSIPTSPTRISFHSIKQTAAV
Description: Agonism of compounds for human corticotropin-releasing factor 2α (CRF2 α receptor) was determined by functional assays measuring CAMP response of a TeloHEAC cell line stably expressing human CRF2 α receptor.
Cells were grown in a T175 culture flask placed at 37° C. to near confluence in medium (DMEM/10% FBS) and collected in 2 ml vials in cell culture medium containing 10% DMSO in a concentration of 10-50 million cells/ml. Each vial contained 1.8 ml cells. The vials were slowly frozen to −80° C. in isopropanol and then transferred in liquid nitrogen for storage. Prior to use, frozen cells were thawed quickly at 37° C. and washed (5 min at 900 rpm) with 20 ml cell buffer (1×HBSS; 20 mM HEPES; 0% or 0.1% HSA). Cells were resuspended in assay buffer (cell buffer plus 2 mM IBMX) and adjusted to a cell density of 1 million cells/ml. For measurement, 5 μl cells (final […]) and 5 μL of test compound were added to a 384-well plate, followed by incubation for 30 minutes at room temperature.
The CAMP content of cells was determined using a kit from Cisbio Corp. (cat. no. 62AM4PEC) based on HTRF (Homogenous Time Resolved Fluorescence). After addition of HTRF reagents diluted in lysis buffer (kit components), the plates were incubated for 1 h, followed by measurement of the fluorescence ratio at 665/620 nm. The percent activity value (E %) was calculated by setting 1000 nM of urocortin 2 (UCN2) as 100%. The in vitro potency of the compounds was quantified by determining the concentrations that caused 50% activation of maximal response (EC50).

EC50 [nM]	SMILES
15.4	CC[C@H](C)[C@H](N)C(=O)N[C@H](C(=O)N[C@@H](CC(C)C)C(=O)N[C@@H](CO)C(=O)N[C@@H](CC(C)C)C(=O)N[C@@H](CC(=O)O)C(=O)N[C@H](C(=O)N1CCC[C@H]1C(=O)N[C@H](C(=O)N[C@@H](CCCCN)C(=O)N[C@@H](CC(C)C)C(=O)N[C@@H](CCCCNC(=O)COCCOCCNC(=O)COCCOCCNC(=O)CC[C@H](NC(=O)CCCCCCCCCCCCCCCCC(=O)O)C(=O)O)C(=O)N[C@@H](CCC(N)=O)C(=O)N[C@H](C(=O)N[C@@H](CC(C)C)C(=O)N[C@@H](CC(C)C)C(=O)N[C@@H](CCC(=O)O)C(=O)N[C@@H](CCC(N)=O)C(=O)N[C@@H](CCC(=O)O)C(=O)N[C@@H](CCCNC(=N)N)C(=O)N[C@@H](CCC(N)=O)C(=O)N[C@@H](CCCNC(=N)N)C(=O)NC(C)(C)C(=O)N[C@@H](CCC(=O)O)C(=O)N[C@@H](CCCNC(=N)N)C(=O)N[C@@H](CCC(N)=O)C(=O)N[C@@H](CCC(N)=O)C(=O)N[C@@H](C)C(=O)N[C@@H](CCC(=O)O)C(=O)N[C@@H](CCCCN)C(=O)N[C@@H](CC(N)=O)C(=O)N[C@H](C(=O)N[C@@H](CCCNC(=N)N)C(=O)N[C@H](C(=O)N[C@@H](CC(C)C)C(=O)N[C@@H](CCC(=O)O)C(=O)N[C@@H](CCCNC(=N)N)C(=O)N[C@H](C(N)=O)C(C)C)[C@@H](C)CC)C(C)C)[C@@H](C)CC)[C@@H](C)CC)C(C)C)C(C)C [compound 42] (H-IVLSLDVPIKLK([AEEA-AEEA-γGlu-C18 diacid])QILLEQERQR[Aib]ERQQAEKNVRILERV-NH2)
13.7	CC[C@H](C)[C@H](N)C(=O)N[C@H](C(=O)N[C@@H](CC(C)C)C(=O)N[C@@H](CO)C(=O)N[C@@H](CC(C)C)C(=O)N[C@@H](CC(=O)O)C(=O)N[C@H](C(=O)N1CCC[C@H]1C(=O)N[C@H](C(=O)N[C@@H](CCCCN)C(=O)N[C@@H](CC(C)C)C(=O)N[C@@H](CCCCNC(=O)COCCOCCNC(=O)COCCOCCNC(=O)CC[C@H](NC(=O)CCCCCCCCCCCCCCCCC(=O)O)C(=O)O)C(=O)N[C@@H](CCC(N)=O)C(=O)N[C@H](C(=O)N[C@@H](CC(C)C)C(=O)N[C@@H](CC(C)C)C(=O)N[C@@H](CCC(=O)O)C(=O)N[C@@H](CCC(N)=O)C(=O)N[C@@H](C)C(=O)N[C@@H](CCCCN)C(=O)N[C@@H](CCC(N)=O)C(=O)N[C@@H](CCCCN)C(=O)N[C@@H](CCCCN)C(=O)N[C@@H](CCC(=O)O)C(=O)N[C@@H](CCCNC(=N)N)C(=O)N[C@@H](C)C(=O)N[C@@H](CCC(N)=O)C(=O)N[C@@H](C)C(=O)N[C@@H](CCC(=O)O)C(=O)N[C@H](C(=O)N[C@@H](CC(N)=O)C(=O)N[C@H](C(=O)N[C@@H](CCCNC(=N)N)C(=O)N[C@H](C(=O)N[C@@H](CC(C)C)C(=O)N[C@@H](CCC(=O)O)C(=O)N[C@@H](CCCNC(=N)N)C(=O)N[C@H](C(N)=O)C(C)C)[C@@H](C)CC)C(C)C)[C@@H](C)O)[C@@H](C)CC)[C@@H](C)CC)C(C)C)C(C)C [compound 44] (H-IVLSLDVPIKLK([AEEA-AEEA-γGlu-C18 diacid])QILLEQAKQKKERAQAETNVRILERV-NH2)
2.2	CC[C@H](C)[C@H](N)C(=O)N[C@H](C(=O)N[C@@H](CC(C)C)C(=O)N[C@@H](CO)C(=O)N[C@@H](CC(C)C)C(=O)N[C@@H](CC(=O)O)C(=O)N[C@H](C(=O)N1CCC[C@H]1C(=O)N[C@H](C(=O)N[C@@H](CCCCN)C(=O)N[C@@H](CC(C)C)C(=O)N[C@@H](CCCCNC(=O)COCCOCCNC(=O)COCCOCCNC(=O)CC[C@H](NC(=O)CCCCCCCCCCCCCCCCC(=O)O)C(=O)O)C(=O)N[C@@H](CCC(N)=O)C(=O)N[C@H](C(=O)N[C@@H](CC(C)C)C(=O)N[C@@H](CC(C)C)C(=O)N[C@@H](CCC(=O)O)C(=O)N[C@@H](CCC(N)=O)C(=O)N[C@@H](CCC(=O)O)C(=O)N[C@@H](CCCNC(=N)N)C(=O)N[C@@H](CCC(N)=O)C(=O)N[C@@H](CCCNC(=N)N)C(=O)NC(C)(C)C(=O)N[C@@H](CCC(=O)O)C(=O)N[C@@H](CCCNC(=N)N)C(=O)N[C@@H](CCC(N)=O)C(=O)N[C@@H](CCC(N)=O)C(=O)N[C@@H](C)C(=O)N[C@@H](CCC(=O)O)C(=O)N[C@H](C(=O)N[C@@H](CC(N)=O)C(=O)N[C@H](C(=O)N[C@@H](CCC(N)=O)C(=O)N[C@H](C(=O)N[C@@H](CC(C)C)C(=O)N[C@@H](C)C(=O)N[C@@H](CCC(N)=O)C(=O)N[C@H](C(N)=O)C(C)C)[C@@H](C)CC)C(C)C)[C@@H](C)O)[C@@H](C)CC)[C@@H](C)CC)C(C)C)C(C)C [compound 48] (H-IVLSLDVPIKLK([AEEA-AEEA-γGlu-C18 diacid])QILLEQERQR[Aib]ERQQAETNVQILAQV-NH2; N-terminus assumed)
12.7	CC[C@H](C)[C@H](N)C(=O)N[C@H](C(=O)N[C@@H](CC(C)C)C(=O)N[C@@H](CO)C(=O)N[C@@H](CC(C)C)C(=O)N[C@@H](CC(=O)O)C(=O)N[C@H](C(=O)N1CCC[C@H]1C(=O)N[C@H](C(=O)N[C@@H](CCCCN)C(=O)N[C@@H](CC(C)C)C(=O)N[C@@H](CCCCNC(=O)COCCOCCNC(=O)COCCOCCNC(=O)CC[C@H](NC(=O)CCCCCCCCCCCCCCCCC(=O)O)C(=O)O)C(=O)N[C@@H](CCC(N)=O)C(=O)N[C@H](C(=O)N[C@@H](CC(C)C)C(=O)N[C@@H](CC(C)C)C(=O)N[C@@H](CCC(=O)O)C(=O)N[C@@H](CCC(N)=O)C(=O)N[C@@H](CCC(=O)O)C(=O)N[C@@H](CCCNC(=N)N)C(=O)N[C@@H](CCC(N)=O)C(=O)N[C@@H](CCCNC(=N)N)C(=O)NC(C)(C)C(=O)N[C@@H](CCC(=O)O)C(=O)N[C@@H](CCCNC(=N)N)C(=O)N[C@@H](CCC(N)=O)C(=O)N[C@@H](CCC(N)=O)C(=O)N[C@@H](C)C(=O)N[C@@H](CCC(=O)O)C(=O)N[C@H](C(=O)N[C@@H](CC(N)=O)C(=O)N[C@H](C(=O)N[C@@H](CCCNC(=N)N)C(=O)N[C@H](C(=O)N[C@@H](CC(C)C)C(=O)N[C@@H](CCC(=O)O)C(=O)N[C@@H](CCCNC(=N)N)C(=O)N[C@H](C(N)=O)C(C)C)[C@@H](C)CC)C(C)C)[C@@H](C)O)[C@@H](C)CC)[C@@H](C)CC)C(C)C)C(C)C [compound 49] (H-IVLSLDVPIKLK([AEEA-AEEA-γGlu-C18 diacid])QILLEQERQR[Aib]ERQQAETNVRILERV-NH2; N-terminus assumed)
17.2	CC[C@H](C)[C@H](N)C(=O)N[C@H](C(=O)N[C@@H](CC(C)C)C(=O)N[C@@H](CO)C(=O)N[C@@H](CC(C)C)C(=O)N[C@@H](CC(=O)O)C(=O)N[C@H](C(=O)N1CCC[C@H]1C(=O)N[C@H](C(=O)N[C@@H](CCCCN)C(=O)N[C@@H](CC(C)C)C(=O)N[C@@H](CCCCNC(=O)COCCOCCNC(=O)COCCOCCNC(=O)CC[C@H](NC(=O)CCCCCCCCCCCCCCCCC(=O)O)C(=O)O)C(=O)N[C@@H](CCC(N)=O)C(=O)N[C@H](C(=O)N[C@@H](CC(C)C)C(=O)N[C@@H](CC(C)C)C(=O)N[C@@H](CCCCN)C(=O)N[C@@H](CCC(N)=O)C(=O)N[C@@H](CCC(=O)O)C(=O)N[C@@H](CCCNC(=N)N)C(=O)N[C@@H](CCC(N)=O)C(=O)N[C@@H](CCCNC(=N)N)C(=O)NC(C)(C)C(=O)N[C@@H](CCC(=O)O)C(=O)N[C@@H](CCCNC(=N)N)C(=O)N[C@@H](CCC(N)=O)C(=O)N[C@@H](CCC(N)=O)C(=O)N[C@@H](C)C(=O)N[C@@H](CCC(=O)O)C(=O)N[C@H](C(=O)N[C@@H](CC(N)=O)C(=O)N[C@H](C(=O)N[C@@H](CCCNC(=N)N)C(=O)N[C@H](C(=O)N[C@@H](CC(C)C)C(=O)N[C@@H](CCC(=O)O)C(=O)N[C@@H](CCCNC(=N)N)C(=O)N[C@H](C(N)=O)C(C)C)[C@@H](C)CC)C(C)C)[C@@H](C)O)[C@@H](C)CC)[C@@H](C)O)C(C)C)C(C)C [compound 50] (H-IVLSLDVPTKLK([AEEA-AEEA-γGlu-C18 diacid])QILLKQERQR[Aib]ERQQAETNVRILERV-NH2; N-terminus assumed)
